Measured values from patent US20130210823A1, “METHODS FOR C[…]” (SYNGENTA PARTICIPATIONS AG, priority 2010, published 2013).

System: Varroa destructor
Test: Varroa mite contact test on Potter-tower treated Petri dishes
Format: in vivo
Settings: adult V. destructor, contact with spray deposit, concentration of formulation 1 × 10^−−4 g, assessed after 72 h
Description: Varroa mites came from bee colonies provided by a beekeeper. The mite population is kept in a dedicated apiary. For screening needs adults are collected on the same day as the beginning of experiment, either in beehive cells containing brood of worker bees or drones, or directly on bees emerging during collection.
Bee nymphs needed to feed adults of Varroa mites during experiments are choosen within the frames from which Varroa is also collected. They are collected at the stage of nymph with white or pink coloured eyes according methology described by Rembold et Kremer (Characterization of postembryonic developmental stages of the female castes of the honey bee, Apis mellifera L. Apidologie 11: 29-38).
3 cm diameter Petri dishes were used as confinement material of Varroa mites during experiments. Covers with wire mesh were put on the top of each Petri dish in order to avoid the mites to run away but also to keep favorable humidity for the bee nymph. […]
After treatment of Petri dishes, five (5) adults of V. destructor collected from the brood were placed in the petri dish. […] During a test 20 Varroa adults are tested for a given compound (4 dishes of 5 individuals).Mortality levels are assessed after 72 h (mites which are able to move their legs are considered as alive). […]

## CC1=NNC(=O)N(N=Cc2cccnc2)C1 [pymetrozine, 2,3,4,5-tetrahydro-3-oxo-4-[(pyridin-3-yl)methyleneamino]-6-methyl-1,2,4-triazine]
  % mortality of Varroa: 90%
